{"source": "patent US9944968B2", "about": "“Control of protein glycosylation by culture medium supplementation and cell culture process parameters” (Biogen MA Inc., priority 2013, dated 2018)", "key": {"[1]": {"test_system": "DUXB11 cell line", "assay": "DUXB11 3 L bioreactor with insulin additions and fixed MPA: afucosylation, glycosylation map, titer", "assay_type": "cell-based, Chinese hamster", "parameters": "M3F / Afucosyl / G0 / G0F / MS / G1 + G1′ / G1F + G1F′ / M6 / G2 / G2F: unit not given here", "conditions": "for Afucosyl / G0 / G0F / G1 + G1′ / G1F + G1F′ / G2 / G2F / M3F / M6 / MS: with MPA, DUXB11; for Afucosylation (%) / Titer: fixed 5 μM MPA, DUXB11 3 L bioreactor", "procedure": "FIG. 11. […] Fixed 5 μM of MPA was added on Day 9 in all bioreactors and harvested on the same day. Filtered supernatant samples were analyzed for titer and N-glycan analysis for afucosylation level.\nThe culture conditions are described in FIG. 11."}, "[2]": {"test_system": "FcgRIII a", "assay": "FcgRIIIa binding of product after insulin and MPA supplement on DUXB11"}, "[3]": {"test_system": "DUXB11 cell lines", "assay_type": "cell-based, Chinese hamster", "conditions": "for Cell viability (%): Chinese hamster, 3 days", "procedure": "FIG. 7A and FIG. 7B. Impact of Mycophenolic acid (MPA) on afucosylation in cell lines (FIG. 7A and FIG. 7B showing two different cell lines) derived from DUXB11. The cells were cultured in 3 L bioreactor respectively for 7 days following the platform process. On day 7, the cells were divided into several 1 L shake flasks with 200 mL working volume and then dosed with various amounts of MPA (0 μM, […], 10 μM, 30 μM). After dosing MPA, shake flask fed-batch is conducted until day-3 harvest. Filtered supernatant samples were analyzed for titer and N-glycan analysis for afucosylation level.\nDUXB11 cell lines (cell line #1 and #2) were cultured in 3 L bioreactor respectively for 7 days following the platform process. On day 7, the cells were divided into several 1 L shake flasks with 200 mL working volume and then dosed with various amounts of MPA (0 μM, 1 μM, 10 μM, 30 μM). After dosing MPA, shake flask fed-batch is conducted until day-3 harvest. Filtered supernatant samples were analyzed for titer and N-glycan analysis for afucosylation level. […] However, the titer was decreased (side effect) (see Table 8 below and FIG. 7A and FIG. 7B). […] The impact on viability became much more significant in bioreactor process (see Example 9 below)."}, "[4]": {"test_system": "BIIB603 cell line", "assay": "BIIB603 shake flask fed-batch with MPA or acMPAG: afucosylation (N-glycan analysis)", "assay_type": "cell-based", "conditions": "BIIB603 shake flasks; MPA 20, 40 μM or acMPAG 20 μM dosed day 6; 4 more days at 31 °C; FIG. 18", "procedure": "(§1) FIG. 18. Impact of Mycophenolic acid (MPA) and Mycophenolic acid acyl glucuronide (acMPAG) on afucosylation in BIIB603 cell line. The cells were scaled up to 5 L BR for fed-batch production process. On day 5, temperature was shifted from 37° C. to 31° C. On day 6, cell culture was drained from the bioreactor and divided into several 500 mL shake flasks with 100 mL working volume and then dosed with various amounts of MPA (0 μM, 20 μM, 40 μM) or acMPAG (20 μM) in duplicates. After dosing, the shake flasks were cultured another 4 days at 31° C., 5% CO2 and 150 rpm with fed-batch process and then harvested. The supernatant was sent for PQ assay (N-glycan analysis) for afucosylation level.\nas §1, with “BIIB603” for “FIG. 18. Impact of Mycophenolic acid (MPA) and Mycophenolic acid acyl glucuronide (acMPAG) on afucosylation in BIIB603”, “line was” for “line. The cells were”"}, "[5]": {"test_system": "DUXB11 cell lines", "assay_type": "cell-based, Chinese hamster", "conditions": "for impact on afucosylation: 3 L bioreactor, harvest D13; for Afucosylation (%) / Titer: MPA supplementation Day 5, DUXB11", "procedure": "FIG. 8. Impact of the timing of supplementation with Mycophenolic acid (MPA) on afucosylation of DUXB11 cell line in 3 L bioreactors (A, B, C, and D) with the same seed density following the platform process. When the viable cell density (VCD) reached its peak (Day 5 in the study), fixed 5 μM of MPA was added in bioreactor A. At the same time, MPA was added in bioreactor B based on the VCD value to make sure MPA per cell is the same as the platform process to eliminate the possible impact of different cell growth. The next day (one day past peak VCD day, D6 in this study), fixed 5 μM of MPA was added in bioreactor C and MPA was added in bioreactor D based on its D6 VCD value to make sure MPA per cell is the same as the platform process to eliminate the possible impact of different cell growth. All bioreactors were harvested on D13. The filtered supernatant samples were analyzed for titer and N-glycan analysis for afucosylation level.\nDUXB11 cell lines were cultured in 3 L bioreactor respectively following the platform process. On day 6, various amounts of MPA were dosed (0 μM and 5 μM). After dosing MPA, bioreactors were kept running until they were harvested on day 13. Filtered supernatant samples were analyzed for titer and N-glycan analysis for afucosylation level.\nThe culture conditions are described in FIG. 8. […] In addition, afucosylation level was increased with peak VCD day MPA addition (fixed 5 μM MPA vs. VCD based MPA addition).\nThe effect of temperature shift and supplementation with MPA is provided in FIG. 12, FIG. 13, FIG. 14A, and FIG. 14B and Table 11 below."}, "[6]": {"conditions": "1 μM MPA dosed day 7, DUXB11 shake flask, harvest 3 days after dosing"}, "[7]": {"conditions": "10 μM MPA dosed day 7, DUXB11 shake flask, harvest 3 days after dosing"}, "[8]": {"conditions": "30 μM MPA dosed day 7, DUXB11 shake flask, harvest 3 days after dosing"}, "[9]": {"conditions": "increasing MPA dosing concentration (1, 10, 30 μM), shake flask"}}, "note": "Like-named read-outs stand apart in the source and are kept apart here."}
{"molecule": "insulin", "values": [{"measurement": "Afucosyl", "setting": "[1]; 2.5 mg/L ins in feed 1", "value": 4.9}, {"measurement": "G0", "setting": "[1]; 2.5 mg/L ins in feed 1", "value": 3.9}, {"measurement": "G0F", "setting": "[1]; 2.5 mg/L ins in feed 1", "value": 68.1}, {"measurement": "G1 + G1′", "setting": "[1]; 2.5 mg/L ins in feed 1", "value": 0.9}, {"measurement": "G1F + G1F′", "setting": "[1]; 2.5 mg/L ins in feed 1", "value": 20.2}, {"measurement": "G2", "setting": "[1]; 2.5 mg/L ins in feed 1", "value": 0.0}, {"measurement": "G2F", "setting": "[1]; 2.5 mg/L ins in feed 1", "value": 1.8}, {"measurement": "M3F", "setting": "[1]; 2.5 mg/L ins in feed 1", "value": 1.0}, {"measurement": "M6", "setting": "[1]; 2.5 mg/L ins in feed 1", "value": 0.90}, {"measurement": "MS", "setting": "[1]; 2.5 mg/L ins in feed 1", "value": 2.2}, {"measurement": "Afucosyl", "setting": "[1]; 10 mg/L ins in feed 1", "value": 6.2}, {"measurement": "G0", "setting": "[1]; 10 mg/L ins in feed 1", "value": 5.1}, {"measurement": "G0F", "setting": "[1]; 10 mg/L ins in feed 1", "value": 64.9}, {"measurement": "G1 + G1′", "setting": "[1]; 10 mg/L ins in feed 1", "value": 1.1}, {"measurement": "G1F + G1F′", "setting": "[1]; 10 mg/L ins in feed 1", "value": 21.7}, {"measurement": "G2", "setting": "[1]; 10 mg/L ins in feed 1", "value": 0.0}, {"measurement": "G2F", "setting": "[1]; 10 mg/L ins in feed 1", "value": 2.3}, {"measurement": "M3F", "setting": "[1]; 10 mg/L ins in feed 1", "value": 0.9}, {"measurement": "M6", "setting": "[1]; 10 mg/L ins in feed 1", "value": 0.9}, {"measurement": "MS", "setting": "[1]; 10 mg/L ins in feed 1", "value": 2.2}, {"measurement": "G0", "setting": "[1]; 30 mg/L ins in feed 1", "value": 6.7}, {"measurement": "G0F", "setting": "[1]; 30 mg/L ins in feed 1", "value": 62.5}, {"measurement": "G1 + G1′", "setting": "[1]; 30 mg/L ins in feed 1", "value": 1.3}, {"measurement": "G1F + G1F′", "setting": "[1]; 30 mg/L ins in feed 1", "value": 21.1}, {"measurement": "G2", "setting": "[1]; 30 mg/L ins in feed 1", "value": 0.0}, {"measurement": "G2F", "setting": "[1]; 30 mg/L ins in feed 1", "value": 2.3}, {"measurement": "M3F", "setting": "[1]; 30 mg/L ins in feed 1", "value": 0.9}, {"measurement": "M6", "setting": "[1]; 30 mg/L ins in feed 1", "value": 1.1}, {"measurement": "MS", "setting": "[1]; 30 mg/L ins in feed 1", "value": 2.4}, {"measurement": "G0", "setting": "[1]; 60 mg/L ins in feed 1", "value": 6.4}, {"measurement": "G0F", "setting": "[1]; 60 mg/L ins in feed 1", "value": 61.4}, {"measurement": "G1 + G1′", "setting": "[1]; 60 mg/L ins in feed 1", "value": 1.4}, {"measurement": "G1F + G1F′", "setting": "[1]; 60 mg/L ins in feed 1", "value": 22.9}, {"measurement": "G2", "setting": "[1]; 60 mg/L ins in feed 1", "value": 0.0}, {"measurement": "G2F", "setting": "[1]; 60 mg/L ins in feed 1", "value": 2.6}, {"measurement": "M3F", "setting": "[1]; 60 mg/L ins in feed 1", "value": 0.8}, {"measurement": "M6", "setting": "[1]; 60 mg/L ins in feed 1", "value": 0.9}, {"measurement": "MS", "setting": "[1]; 60 mg/L ins in feed 1", "value": 2.5}, {"measurement": "afucosylation", "setting": "[1]; increasing insulin concentration with same MPA supplementation, fed-batch culture", "value": "increased afucosylation"}, {"measurement": "Afucosylation (%)", "setting": "[1]; total insulin added 11 mg/L", "value": 4.9, "unit": "%"}, {"measurement": "Titer", "setting": "[1]; total insulin added 11 mg/L", "value": 2.3, "unit": "g/L"}, {"measurement": "Afucosylation (%)", "setting": "[1]; total insulin added 13 mg/L", "value": 6.2, "unit": "%"}, {"measurement": "Titer", "setting": "[1]; total insulin added 13 mg/L", "value": 2.6, "unit": "g/L"}, {"measurement": "FcgRIII a binding", "setting": "[2]; 2.5 mg/L ins in feed 1, with MPA", "value": 60}, {"measurement": "FcgRIII a binding", "setting": "[2]; 10 mg/L ins in feed 1, with MPA", "value": 71}, {"measurement": "FcgRIII a binding", "setting": "[2]; 30 mg/L ins in feed 1, with MPA", "value": 100}, {"measurement": "FcgRIII a binding", "setting": "[2]; 60 mg/L ins in feed 1, with MPA", "value": 100}]}
{"molecule": "COc1c(C)c2c(c(O)c1C/C=C(\\C)CCC(=O)O)C(=O)OC2", "note": "[MPA, mycophenolic acid]", "values": [{"measurement": "impact on viability", "setting": "[3]", "value": "not significant"}, {"measurement": "Afucosylation (%)", "setting": "[3]; [6]", "value": 3.85, "unit": "%"}, {"measurement": "Titer", "setting": "[3]; [6]", "value": 0.136, "unit": "g/L"}, {"measurement": "Afucosylation (%)", "setting": "[3]; [7]", "value": 4.9, "unit": "%"}, {"measurement": "Titer", "setting": "[3]; [7]", "value": 0.106, "unit": "g/L"}, {"measurement": "Afucosylation (%)", "setting": "[3]; [8]", "value": 4.4, "unit": "%"}, {"measurement": "Titer", "setting": "[3]; [8]", "value": 0.105, "unit": "g/L"}, {"measurement": "Cell viability (%)", "setting": "[3]; 1 μM", "value": 62, "unit": "%"}, {"measurement": "Cell viability (%)", "setting": "[3]; 10 μM", "value": 61, "unit": "%"}, {"measurement": "Cell viability (%)", "setting": "[3]; 30 μM", "value": 62, "unit": "%"}, {"measurement": "Titer", "setting": "[3]; [9]", "value": "decreased"}, {"measurement": "afucosylation level", "setting": "[3]; [9]", "value": "increase"}, {"measurement": "afucosylation level", "setting": "[4]", "value": "increase in the afucosylation level"}, {"measurement": "impact on afucosylation", "setting": "[5]; MPA added on a different day than peak VCD (one day past, D6)", "value": "non-significant impact"}, {"measurement": "impact on afucosylation", "setting": "[5]; MPA added on the day of peak VCD (Day 5), fixed 5 μM or VCD based", "value": "significant impact"}, {"measurement": "Afucosylation (%)", "setting": "[5]; temperature 35 to 30 °C", "value": 11.9, "unit": "%"}, {"measurement": "Titer", "setting": "[5]; temperature 35 to 30 °C", "value": 1.5, "unit": "g/L"}, {"measurement": "Afucosylation (%)", "setting": "[5]; temperature 35 to 33 °C", "value": 10.7, "unit": "%"}, {"measurement": "Titer", "setting": "[5]; temperature 35 to 33 °C", "value": 1.8, "unit": "g/L"}]}
{"molecule": "COc1c(C)c2c(c(O)c1C/C=C(\\C)CCC(=O)O[C@@H]1O[C@H](C(=O)O)[C@@H](O)[C@H](O)[C@H]1O)C(=O)OC2", "note": "[acMPAG, mycophenolic acid acyl glucuronide]", "values": [{"measurement": "afucosylation level", "setting": "[4]", "value": "increased the afucosylation level to similar extent"}]}
